Experimental findings from ChEMBL document CHEMBL1201862, “PubChem BioAssay data set” (2004) are described below.

What is called Ki is a measure of affinity in units of concentration, obtained from inhibition or displacement. Usually IC50 stands for the midpoint of a concentration-inhibition curve. Usually CC50 stands for the concentration at which the toxic effect on the cells reaches its halfway point. As a reminder, the AC50 is the midpoint of the concentration-response curve, whichever way the signal moves. For orientation: EC50 means the concentration at which the effect is half-maximal.

The target in test [1] is MAP/microtubule affinity-regulating kinase 3 (Homo sapiens, UniProt P27448). Format: functional.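 Note: MARK3 affinity measured as one member of a kinome panel.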
In test [2] the target is Dual specificity protein kinase CLK4 (Homo sapiens, UniProt Q9HAZ1). The test is classed as functional.
Test [3] concerns the target Cyclin-dependent kinase 1 (Homo sapiens, UniProt P06493). The test is classed as functional.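 Note: Kinome-wide panel profiling, with the target listed as panel member CDC2.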
For test [4], the target named is Cyclin-dependent kinase 5 (Homo sapiens, UniProt Q00535). Format: functional.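 Note: CDK5 measured as one member of a kinase profiling panel.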
Test [5] deals with Tyrosine-protein kinase receptor UFO (Homo sapiens, UniProt P30530). The test is classed as functional.
Test [6] deals with Dual specificity protein kinase CLK2 (Homo sapiens, UniProt P49760). Format: functional.
For test [7], the target named is STE20-like serine/threonine-protein kinase (Homo sapiens, UniProt Q9H2G2). The test is classed as functional.
Test [8] has as its target Glycogen synthase kinase-3 beta (Homo sapiens, UniProt P49841). Format: functional.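 Note: value comes from a broad kinome profiling panel, with GSK3B as the panel member.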
Test [9] has as its target T1, Hexokinase HKDC1 (Homo sapiens, UniProt Q2TB90).
T1 sequence (Q2TB90 whole entry): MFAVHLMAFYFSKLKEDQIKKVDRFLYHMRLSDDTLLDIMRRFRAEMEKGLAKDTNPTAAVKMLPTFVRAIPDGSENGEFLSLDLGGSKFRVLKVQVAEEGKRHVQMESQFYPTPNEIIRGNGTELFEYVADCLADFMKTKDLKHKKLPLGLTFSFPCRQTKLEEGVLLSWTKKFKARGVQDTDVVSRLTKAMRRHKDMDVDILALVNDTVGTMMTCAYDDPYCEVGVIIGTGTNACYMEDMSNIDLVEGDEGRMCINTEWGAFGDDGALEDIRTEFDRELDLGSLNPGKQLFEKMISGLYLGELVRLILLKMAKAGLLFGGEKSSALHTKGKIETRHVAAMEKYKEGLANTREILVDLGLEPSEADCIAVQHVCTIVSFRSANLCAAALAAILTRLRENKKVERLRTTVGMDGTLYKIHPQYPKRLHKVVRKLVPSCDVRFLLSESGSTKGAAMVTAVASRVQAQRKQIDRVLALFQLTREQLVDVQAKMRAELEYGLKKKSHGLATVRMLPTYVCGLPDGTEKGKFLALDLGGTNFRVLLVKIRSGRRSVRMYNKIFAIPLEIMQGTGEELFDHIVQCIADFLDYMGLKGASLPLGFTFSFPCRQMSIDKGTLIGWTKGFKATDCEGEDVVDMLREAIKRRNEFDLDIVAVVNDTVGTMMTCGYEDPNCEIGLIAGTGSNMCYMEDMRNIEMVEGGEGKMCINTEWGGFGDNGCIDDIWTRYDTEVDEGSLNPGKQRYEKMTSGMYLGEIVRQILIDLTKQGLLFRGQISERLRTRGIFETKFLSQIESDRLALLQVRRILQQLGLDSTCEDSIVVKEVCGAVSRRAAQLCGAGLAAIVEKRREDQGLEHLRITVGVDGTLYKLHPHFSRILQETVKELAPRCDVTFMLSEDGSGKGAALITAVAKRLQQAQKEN
The test is described as follows: HKDC1 hexokinase inhibitors, SAR follow-up, biochemical, set 2 (AID 588355). Format: functional.

Test [10] addresses T1, Hexokinase HKDC1. The test is described as follows: SAR analysis of small molecule inhibitors of hexokinase domain containing I (HKDC1) - Set 3. [Related pubchem assays (depositor defined):AID493160, AID493190]. The test is classed as functional.
For the next test, the target named is Hexokinase-1 (Homo sapiens, UniProt P19367). The test is described as follows: HK1 enzyme inhibition by HKDC1 hits, SAR follow-up, selectivity assay for HKDC1 inhibitor project, biochemical, set 2, resazurin fluorescence coupled readout (AID 588356). Format: functional.
The target in test [11] is ALK tyrosine kinase receptor (Homo sapiens, UniProt Q9UM73). Format: functional.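 Note: ALK tested as one member of a kinase panel screen.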
Test [12] has as its target Cell division cycle 7-related protein kinase (Homo sapiens, UniProt O00311). Format: functional.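 Note: value obtained from a kinome-wide kinase panel.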
Test [13] has as its target Mitogen-activated protein kinase kinase kinase kinase 4 (Homo sapiens, UniProt O95819). The test is classed as functional.
Test [14] addresses Homeodomain-interacting protein kinase 2 (Homo sapiens, UniProt Q9H2X6). Format: functional.
The target in test [15] is cAMP-dependent protein kinase catalytic subunit alpha (Homo sapiens, UniProt P17612). Format: functional.
Test [16] has as its target Interleukin-1 receptor-associated kinase 4 (Homo sapiens, UniProt Q9NWZ3). The test is classed as functional.
Test [17] has as its target Serine/threonine-protein kinase pim-1 (Homo sapiens, UniProt P11309). The test is classed as functional.
Test [18] is described as follows: THP-1 cell cytotoxicity, dose response, cytotoxicity control, set 3 (AID 504852). The test is classed as functional. The conditions noted are these: Mycobacterium tuberculosis.
Test [19] is described as follows: A Cell Based Secondary Assay to Explore Cytotoxicity in THP-1 Cells of Compounds that Modulate Mycobacterium tuberculosis in Media Containing Glycerol versus Media without Glycerol (2). Format: functional.
Test [20] has as its target DNA (cytosine-5)-methyltransferase 1 (Homo sapiens, UniProt P26358). The test is described as follows: DNMT1 methyltransferase inhibitors, confirmation, biochemical, fluorescent molecular beacon (AID 602386). The test is classed as functional.
Test [21] deals with T2, DNA repair protein RAD52 homolog (Homo sapiens, UniProt P43351).
T2 sequence (P43351 whole entry): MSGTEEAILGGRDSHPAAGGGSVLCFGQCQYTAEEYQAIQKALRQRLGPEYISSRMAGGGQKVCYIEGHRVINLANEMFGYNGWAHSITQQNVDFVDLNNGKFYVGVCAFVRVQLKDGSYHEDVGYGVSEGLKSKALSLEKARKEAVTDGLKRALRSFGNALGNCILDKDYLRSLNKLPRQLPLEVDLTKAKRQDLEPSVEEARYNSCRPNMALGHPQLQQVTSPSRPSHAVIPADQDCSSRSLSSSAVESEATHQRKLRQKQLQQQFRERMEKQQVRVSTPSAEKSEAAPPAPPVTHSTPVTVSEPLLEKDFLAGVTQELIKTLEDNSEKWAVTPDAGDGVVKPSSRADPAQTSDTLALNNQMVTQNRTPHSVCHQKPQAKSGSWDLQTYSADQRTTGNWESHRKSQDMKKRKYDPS
Format: functional, biochemical.

For test [22], the target named is T3, Rac GTPase-activating protein 1 (Homo sapiens, UniProt Q9H0H5).
T3 sequence (Q9H0H5 whole entry): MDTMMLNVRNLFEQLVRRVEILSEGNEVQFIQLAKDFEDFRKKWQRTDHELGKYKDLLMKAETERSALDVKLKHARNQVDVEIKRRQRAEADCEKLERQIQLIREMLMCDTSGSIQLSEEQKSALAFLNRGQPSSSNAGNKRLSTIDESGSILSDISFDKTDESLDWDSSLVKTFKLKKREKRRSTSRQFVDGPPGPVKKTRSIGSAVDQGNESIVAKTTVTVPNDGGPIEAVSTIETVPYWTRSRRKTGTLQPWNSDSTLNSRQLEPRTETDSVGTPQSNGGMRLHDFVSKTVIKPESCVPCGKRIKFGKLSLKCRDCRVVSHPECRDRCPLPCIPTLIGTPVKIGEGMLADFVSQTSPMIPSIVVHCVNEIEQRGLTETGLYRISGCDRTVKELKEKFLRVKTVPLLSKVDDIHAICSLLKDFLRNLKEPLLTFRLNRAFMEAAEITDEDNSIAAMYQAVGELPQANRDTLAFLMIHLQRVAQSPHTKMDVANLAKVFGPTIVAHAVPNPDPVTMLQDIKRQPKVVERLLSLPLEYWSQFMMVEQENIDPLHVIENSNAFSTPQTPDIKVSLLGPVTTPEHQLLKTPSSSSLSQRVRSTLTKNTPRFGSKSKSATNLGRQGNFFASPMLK
Briefly: MgcRacGAP GTPase-activating activity inhibitors, confirmation, biochemical, ADP Hunter fluorescence, primary and confirmatory (AID 624330). Format: functional.

The nature of test [23]: THP-1 cell cytotoxicity, cytotoxicity control, set 4 (AID 504911). The test is classed as functional. Particulars: Mycobacterium tuberculosis.
A further test deals with Misshapen-like kinase 1 (Homo sapiens, UniProt Q8N4C8). The test is classed as functional.
Test [24] deals with 72 kDa type IV collagenase (Homo sapiens, UniProt P08253). The test is described as follows: Dose Response validation of uHTS RPN11 inhibitor hits using a MMP-2 Fluorescence assay. The test is classed as functional.
Test [25] deals with 26S proteasome non-ATPase regulatory subunit 14 (Homo sapiens, UniProt O00487). Briefly: inhibition of proteasome subunit RPN11 – biochemical, fluorescence polarization, uHTS hits, confirmation (AID 602368). The test is classed as functional. On the technique in general: Polarisation of emitted light reports the rotation of a fluorescent probe.
The next test addresses Prothrombin (Bos taurus, UniProt P00735). The test is described as follows: thrombin inhibition, dose response, biochemical, fluorescence polarization, uHTS hits (AID 602369). Format: functional.
The target of test [26] is T4, High affinity choline transporter 1 (Homo sapiens, UniProt Q9GZV3).
T4 sequence (Q9GZV3 whole entry): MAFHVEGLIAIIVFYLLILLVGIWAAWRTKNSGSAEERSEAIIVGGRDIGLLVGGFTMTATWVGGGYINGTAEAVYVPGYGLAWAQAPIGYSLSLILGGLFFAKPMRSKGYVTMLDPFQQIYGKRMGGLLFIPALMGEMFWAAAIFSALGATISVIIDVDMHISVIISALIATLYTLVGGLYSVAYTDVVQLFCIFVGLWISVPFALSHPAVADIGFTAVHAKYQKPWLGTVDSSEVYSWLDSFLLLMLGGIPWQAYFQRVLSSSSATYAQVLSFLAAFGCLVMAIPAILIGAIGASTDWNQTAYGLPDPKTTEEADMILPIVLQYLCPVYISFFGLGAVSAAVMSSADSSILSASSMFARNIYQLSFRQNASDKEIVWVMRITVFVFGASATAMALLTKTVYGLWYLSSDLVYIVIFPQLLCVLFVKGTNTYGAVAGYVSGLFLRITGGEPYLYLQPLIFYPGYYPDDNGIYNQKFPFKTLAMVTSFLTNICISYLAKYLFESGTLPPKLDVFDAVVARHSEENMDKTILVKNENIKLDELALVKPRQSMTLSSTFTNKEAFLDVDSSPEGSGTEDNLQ
The test is described as follows: CHT activators, dose response, cell-based, 10-point CRC, membrane potential dye (AID 602376). Format: functional.

The source made the active and inactive calls. Bounds are passed on as bounds.

Sequence of Dual specificity protein kinase CLK4 (Q9HAZ1 whole entry): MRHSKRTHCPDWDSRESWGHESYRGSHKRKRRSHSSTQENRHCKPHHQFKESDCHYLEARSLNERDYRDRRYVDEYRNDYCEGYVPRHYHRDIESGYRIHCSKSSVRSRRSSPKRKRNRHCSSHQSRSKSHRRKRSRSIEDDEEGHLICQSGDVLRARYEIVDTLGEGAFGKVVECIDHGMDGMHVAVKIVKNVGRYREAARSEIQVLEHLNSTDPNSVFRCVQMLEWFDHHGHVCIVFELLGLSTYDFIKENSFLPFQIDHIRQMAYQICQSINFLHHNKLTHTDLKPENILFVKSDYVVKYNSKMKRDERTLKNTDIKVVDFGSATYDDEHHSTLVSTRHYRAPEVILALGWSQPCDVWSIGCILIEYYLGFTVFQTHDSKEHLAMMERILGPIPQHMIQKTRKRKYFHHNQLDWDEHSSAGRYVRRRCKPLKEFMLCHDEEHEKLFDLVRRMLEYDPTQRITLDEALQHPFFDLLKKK
Sequence of Glycogen synthase kinase-3 beta (P49841 whole entry): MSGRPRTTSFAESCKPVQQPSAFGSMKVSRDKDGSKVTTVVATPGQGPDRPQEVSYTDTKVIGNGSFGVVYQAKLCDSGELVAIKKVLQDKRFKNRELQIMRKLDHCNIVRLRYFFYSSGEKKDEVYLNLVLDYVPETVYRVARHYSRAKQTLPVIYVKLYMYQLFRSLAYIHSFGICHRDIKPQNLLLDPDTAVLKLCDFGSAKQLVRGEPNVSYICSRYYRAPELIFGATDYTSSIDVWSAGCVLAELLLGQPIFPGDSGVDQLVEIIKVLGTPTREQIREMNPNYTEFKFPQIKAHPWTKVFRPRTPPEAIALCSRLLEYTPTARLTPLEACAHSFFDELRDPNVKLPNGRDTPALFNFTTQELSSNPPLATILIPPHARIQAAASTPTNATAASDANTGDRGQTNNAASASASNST
Sequence of Cell division cycle 7-related protein kinase (O00311 whole entry): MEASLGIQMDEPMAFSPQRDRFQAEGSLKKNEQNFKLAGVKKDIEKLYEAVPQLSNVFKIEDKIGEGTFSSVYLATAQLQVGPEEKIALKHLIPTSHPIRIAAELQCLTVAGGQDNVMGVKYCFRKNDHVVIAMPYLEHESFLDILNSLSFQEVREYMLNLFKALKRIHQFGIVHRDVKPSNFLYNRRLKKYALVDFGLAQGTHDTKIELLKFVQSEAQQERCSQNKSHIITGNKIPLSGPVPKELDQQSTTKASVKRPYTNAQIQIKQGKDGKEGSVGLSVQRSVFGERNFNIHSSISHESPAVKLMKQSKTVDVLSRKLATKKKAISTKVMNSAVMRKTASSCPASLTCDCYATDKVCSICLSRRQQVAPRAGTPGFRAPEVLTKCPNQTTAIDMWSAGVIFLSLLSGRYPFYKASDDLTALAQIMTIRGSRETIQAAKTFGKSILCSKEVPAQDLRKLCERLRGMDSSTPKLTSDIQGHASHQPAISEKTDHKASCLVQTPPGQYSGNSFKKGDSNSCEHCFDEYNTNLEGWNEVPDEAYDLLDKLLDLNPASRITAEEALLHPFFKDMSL
Sequence of Mitogen-activated protein kinase kinase kinase kinase 4 (O95819 whole entry): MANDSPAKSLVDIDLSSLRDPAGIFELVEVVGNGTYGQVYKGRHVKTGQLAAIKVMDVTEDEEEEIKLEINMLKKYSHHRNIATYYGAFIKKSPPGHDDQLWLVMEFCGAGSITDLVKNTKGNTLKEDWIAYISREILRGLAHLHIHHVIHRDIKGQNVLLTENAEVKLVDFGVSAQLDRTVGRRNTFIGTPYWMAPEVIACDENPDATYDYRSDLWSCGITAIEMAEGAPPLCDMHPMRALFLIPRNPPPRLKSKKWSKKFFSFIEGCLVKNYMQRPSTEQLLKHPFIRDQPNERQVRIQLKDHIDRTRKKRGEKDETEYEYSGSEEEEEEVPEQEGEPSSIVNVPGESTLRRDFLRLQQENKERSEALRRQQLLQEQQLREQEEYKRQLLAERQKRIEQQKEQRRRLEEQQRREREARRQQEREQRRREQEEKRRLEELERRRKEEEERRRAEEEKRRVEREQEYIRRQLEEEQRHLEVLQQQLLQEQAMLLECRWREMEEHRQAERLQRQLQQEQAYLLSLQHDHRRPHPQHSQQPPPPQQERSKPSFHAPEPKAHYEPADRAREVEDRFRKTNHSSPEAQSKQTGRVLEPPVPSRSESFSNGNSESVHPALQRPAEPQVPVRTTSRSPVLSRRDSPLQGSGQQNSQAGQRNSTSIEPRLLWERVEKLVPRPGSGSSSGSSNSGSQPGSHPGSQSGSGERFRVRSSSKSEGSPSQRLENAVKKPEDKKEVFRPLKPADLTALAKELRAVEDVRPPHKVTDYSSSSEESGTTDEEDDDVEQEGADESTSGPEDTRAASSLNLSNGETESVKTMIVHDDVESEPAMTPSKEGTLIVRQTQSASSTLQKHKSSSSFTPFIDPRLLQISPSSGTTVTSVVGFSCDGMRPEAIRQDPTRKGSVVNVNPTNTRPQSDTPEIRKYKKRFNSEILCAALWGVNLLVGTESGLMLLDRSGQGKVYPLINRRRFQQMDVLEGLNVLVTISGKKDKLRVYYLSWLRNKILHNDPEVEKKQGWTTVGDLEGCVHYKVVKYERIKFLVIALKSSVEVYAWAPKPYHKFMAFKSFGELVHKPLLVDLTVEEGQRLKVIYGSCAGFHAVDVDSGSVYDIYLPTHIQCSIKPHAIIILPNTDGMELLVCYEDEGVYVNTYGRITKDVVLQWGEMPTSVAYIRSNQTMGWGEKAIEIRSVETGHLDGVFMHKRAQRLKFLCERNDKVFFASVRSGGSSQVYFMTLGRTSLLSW
Sequence of Homeodomain-interacting protein kinase 2 (Q9H2X6 whole entry): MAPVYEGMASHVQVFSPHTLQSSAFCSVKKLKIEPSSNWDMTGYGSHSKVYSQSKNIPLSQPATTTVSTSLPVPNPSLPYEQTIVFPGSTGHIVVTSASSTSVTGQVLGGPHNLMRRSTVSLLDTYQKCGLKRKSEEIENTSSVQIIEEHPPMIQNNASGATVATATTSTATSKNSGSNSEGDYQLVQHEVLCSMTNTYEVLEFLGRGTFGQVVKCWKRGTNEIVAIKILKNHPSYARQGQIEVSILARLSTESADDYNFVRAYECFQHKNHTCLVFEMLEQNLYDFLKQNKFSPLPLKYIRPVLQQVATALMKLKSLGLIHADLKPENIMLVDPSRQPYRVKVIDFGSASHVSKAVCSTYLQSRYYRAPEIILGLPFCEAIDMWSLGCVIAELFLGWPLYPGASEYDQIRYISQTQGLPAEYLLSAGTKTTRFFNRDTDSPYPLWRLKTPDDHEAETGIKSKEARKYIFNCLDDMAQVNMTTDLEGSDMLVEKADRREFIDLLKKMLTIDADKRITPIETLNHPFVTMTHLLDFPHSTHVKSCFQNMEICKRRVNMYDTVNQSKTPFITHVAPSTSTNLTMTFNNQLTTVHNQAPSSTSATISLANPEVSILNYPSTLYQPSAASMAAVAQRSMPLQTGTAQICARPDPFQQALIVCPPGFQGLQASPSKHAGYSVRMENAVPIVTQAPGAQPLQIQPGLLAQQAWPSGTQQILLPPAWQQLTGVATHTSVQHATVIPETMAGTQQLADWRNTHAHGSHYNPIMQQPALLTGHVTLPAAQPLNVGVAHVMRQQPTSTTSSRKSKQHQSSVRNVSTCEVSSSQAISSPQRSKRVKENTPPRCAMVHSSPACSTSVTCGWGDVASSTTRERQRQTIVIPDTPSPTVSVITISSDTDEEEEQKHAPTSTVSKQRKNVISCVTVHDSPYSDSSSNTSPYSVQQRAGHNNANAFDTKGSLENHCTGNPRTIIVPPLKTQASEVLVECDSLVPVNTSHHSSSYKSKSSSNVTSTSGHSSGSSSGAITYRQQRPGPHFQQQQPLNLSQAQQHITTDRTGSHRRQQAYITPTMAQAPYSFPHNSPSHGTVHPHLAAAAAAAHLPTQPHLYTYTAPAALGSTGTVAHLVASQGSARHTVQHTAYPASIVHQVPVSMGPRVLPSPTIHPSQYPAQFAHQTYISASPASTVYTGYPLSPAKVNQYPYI
Sequence of Hexokinase-1 (P19367 whole entry): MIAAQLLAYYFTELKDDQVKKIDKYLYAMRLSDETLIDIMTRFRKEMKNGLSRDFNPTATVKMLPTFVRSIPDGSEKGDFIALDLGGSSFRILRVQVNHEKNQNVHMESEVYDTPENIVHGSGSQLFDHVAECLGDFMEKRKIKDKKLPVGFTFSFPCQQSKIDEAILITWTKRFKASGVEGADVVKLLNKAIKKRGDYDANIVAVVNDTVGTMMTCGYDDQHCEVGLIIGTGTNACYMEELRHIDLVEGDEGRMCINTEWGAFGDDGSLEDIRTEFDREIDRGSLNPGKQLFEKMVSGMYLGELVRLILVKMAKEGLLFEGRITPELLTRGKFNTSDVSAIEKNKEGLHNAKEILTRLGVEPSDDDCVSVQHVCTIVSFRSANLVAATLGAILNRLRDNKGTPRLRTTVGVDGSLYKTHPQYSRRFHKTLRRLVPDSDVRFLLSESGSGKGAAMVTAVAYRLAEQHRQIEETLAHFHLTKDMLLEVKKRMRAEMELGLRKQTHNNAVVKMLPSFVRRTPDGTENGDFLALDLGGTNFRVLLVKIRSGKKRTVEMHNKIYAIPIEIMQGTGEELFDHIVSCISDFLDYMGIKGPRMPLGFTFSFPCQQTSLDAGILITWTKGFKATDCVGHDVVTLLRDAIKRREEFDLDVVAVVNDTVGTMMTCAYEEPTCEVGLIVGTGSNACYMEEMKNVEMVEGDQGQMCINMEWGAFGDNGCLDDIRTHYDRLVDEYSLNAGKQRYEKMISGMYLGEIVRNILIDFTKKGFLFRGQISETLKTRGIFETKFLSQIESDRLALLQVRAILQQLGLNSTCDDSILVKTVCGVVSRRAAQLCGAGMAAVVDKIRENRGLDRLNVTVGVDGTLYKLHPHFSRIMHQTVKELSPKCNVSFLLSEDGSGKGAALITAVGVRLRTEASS

Turning to `Cc1n[nH]c2c1C(c1ccccc1Br)C(C#N)=C(N)O2` (stereo not drawn), the Ki in test [1] is 2 µM (active); in test [2], 5.01 µM (active); in [3], 5.01 µM (active); in [4], 3.16 µM (active); in test [5] it was 2 µM (active); in [6], 3.16 µM (active). Moreover, the Ki in test [7] was 1.58 µM (active); in [8] it was 3.98 µM (active).

For `CC(=O)NC1C(=O)N(CCN2CCOCC2)c2ccc(Br)cc21` (stereo not drawn), the IC50 on Hexokinase HKDC1 [9], at Hexokinase HKDC1 [10] and on Hexokinase-1 was > 80 µM (inactive) in each case.

Regarding `Oc1cccc(-c2c[nH]c3ncccc23)c1`, the Ki in test [11] is > 3.16 µM (inactive); in test [12], 0.316 µM (active).

Consider `O=C1Nc2ccccc2Nc2cc(-c3ccncc3)ccc21`, for which the inhibition constant Ki in test [13] was 1.26 µM (active); in [14], > 3.16 µM (inactive); in test [15], 1.26 µM (active); in test [16] it was 2.51 µM (active); in test [17] it was > 10 µM (inactive); in test [2], 0.0398 µM (active). The Ki in test [12] was 0.00794 µM (active); in test [8] it was 0.398 µM (active).

As to `CC[N+](C)(CC)CCCCOc1ccc2c(c1)C(=O)c1cc(OCCCC[N+](C)(CC)CC)ccc1-2`, the CC50 in [18] was 17.1 µM (active); in test [19] it was 38.8 µM (active); in [23] it was 10.5 µM (active). Moreover, the IC50 was 1.24 µM (active) in test [20] and 180 µM (active) in test [22]. Moreover, the half-maximal activity concentration (AC50) in test [21] was 0.574 µM (active).

`CC(C)Oc1ccc(-c2noc(-c3ccc(CN4CC(C(=O)O)C4)cc3)n2)cc1Cl`: the Ki in test [13] is 5.01 µM (active); on Misshapen-like kinase 1, 6.31 µM (active).

Consider `COc1ccc(CCNc2ccc(C(CC(N)=O)NC(=O)Cc3cccc4ccccc34)cc2[N+](=O)[O-])cc1` (stereo not drawn), for which the IC50 in test [24] is > 100 µM (inactive); in test [25], 25.8 µM (active); on Prothrombin, 40.1 µM (active).

With `CC(NCc1cc(Br)ccc1OCC(N)=O)C12CC3CC(CC(C3)C1)C2` (stereo not drawn), the EC50 in [26] is 13.8 µM (active).
